Reference: patent US7375079B2 (priority 1999, dated 2008)

Biological target: BttxB (Clostridium botulinum, UniProt P10844)
Type: biochemical

Sequence of BttxB (P10844 2-441 limits assumed): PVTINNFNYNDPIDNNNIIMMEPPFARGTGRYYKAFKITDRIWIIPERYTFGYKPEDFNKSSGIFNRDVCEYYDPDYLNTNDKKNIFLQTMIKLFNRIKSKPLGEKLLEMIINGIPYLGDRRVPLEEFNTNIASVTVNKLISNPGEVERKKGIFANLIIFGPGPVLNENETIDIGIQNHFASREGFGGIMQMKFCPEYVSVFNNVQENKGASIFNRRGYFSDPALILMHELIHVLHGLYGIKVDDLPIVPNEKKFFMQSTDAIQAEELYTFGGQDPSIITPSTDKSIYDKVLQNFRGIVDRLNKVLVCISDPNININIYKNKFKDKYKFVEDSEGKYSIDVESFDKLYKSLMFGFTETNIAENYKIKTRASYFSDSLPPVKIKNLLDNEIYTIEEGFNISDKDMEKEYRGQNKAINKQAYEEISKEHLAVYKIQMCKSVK

## AGRGKQGGKVRAKAKTRSSRAGLQFPVGRVHRLLRK [Peptide 36]
  effectiveness as inhibitor of BttxB activity relative to B-I: about 50%

## CC(C)C[C@H](NC(=O)CNC(=O)[C@H](C)NC(=O)[C@H](CCCNC(=N)N)NC(=O)[C@H](CO)NC(=O)[C@H](CO)NC(=O)[C@H](CCCNC(=N)N)NC(=O)[C@@H](NC(=O)[C@H](CCCCN)NC(=O)[C@H](C)NC(=O)[C@H](CCCCN)NC(=O)[C@H](C)NC(=O)[C@H](CCCNC(=N)N)NC(=O)[C@@H](NC(=O)[C@H](CCCCN)NC(=O)CNC(=O)CNC(=O)[C@H](CCC(N)=O)NC(=O)[C@H](CCCCN)NC(=O)CNC(=O)[C@H](CCCNC(=N)N)NC(=O)CNC(=O)[C@H](C)N)C(C)C)[C@@H](C)O)C(=O)N[C@@H](CCC(N)=O)C(=O)N[C@@H](Cc1ccccc1)C(=O)N1CCC[C@H]1C(=O)N[C@H](C(=O)NCC(=O)N[C@@H](CCCNC(=N)N)C(=O)N[C@H](C(=O)N[C@@H](Cc1c[nH]cn1)C(=O)N[C@@H](CCCNC(=N)N)C(=O)N[C@@H](CC(C)C)C(=O)N[C@@H](CC(C)C)C(=O)N[C@@H](CCCNC(=N)N)C(=O)N[C@@H](CCCCN)C(=O)NCC(=O)N[C@@H](CC(N)=O)C(=O)N[C@@H](Cc1ccc(O)cc1)C(=O)O)C(C)C)C(C)C [B-I]
  substrate of BttxB or not: not a substrate

## RPKPQQFFGLM [Substance P]
  inhibition of BttxB (in words): inhibitor
